Experimental data published in patent US20260315609A1, “MIXED VASOPRESSIN RECEPTOR AGONIST-ANTAGONIST FOR TREATING END-STAGE LIVER DISEASE AND COMPLICATIONS ASSOCIATED THEREOF” (FERRING B.V., priority 2022, published 2026).
Starred links: 1 amine or outer side, 2 acyl side, 3 side chain; linkers in the order of their positions; H or OH if unused. Positions of bridges follow the written chain, without caps; N, C: chain ends. Non-standard residues stand in square brackets, D forms with d. Residues, ends and D or L forms follow the SMILES beside them. Chains are numbered I, II in the order given. *: point of attachment. isoGln = NC(=O)[C@H](CCC(=O)[*:2])N[*:1]; εLys = N[C@@H](CCCCN[*:1])C(=O)[*:2]; Dab = NCC[C@H](N)C(=O)O; PhAc = O=C(Cc1ccccc1)*

What was measured:
rV1b receptor = biological target: T1, rV1b receptor (Rattus norvegicus, UniProt P48974); assay: Luciferase reporter gene assay, rat V1b; conditions: read-out: % MPE
T1 sequence (P48974 1-425): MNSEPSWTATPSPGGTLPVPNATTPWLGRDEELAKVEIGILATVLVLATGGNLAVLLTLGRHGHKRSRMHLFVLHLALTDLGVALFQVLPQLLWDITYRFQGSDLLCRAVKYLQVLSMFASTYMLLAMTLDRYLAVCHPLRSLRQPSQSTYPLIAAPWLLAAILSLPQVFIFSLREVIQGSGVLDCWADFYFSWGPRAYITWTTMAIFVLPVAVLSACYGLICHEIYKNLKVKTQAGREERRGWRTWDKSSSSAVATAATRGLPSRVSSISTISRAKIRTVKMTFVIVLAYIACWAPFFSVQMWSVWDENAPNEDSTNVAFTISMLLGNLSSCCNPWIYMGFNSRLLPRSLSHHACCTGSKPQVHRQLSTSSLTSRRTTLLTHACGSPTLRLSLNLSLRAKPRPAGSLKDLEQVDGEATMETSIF
Method: (§1) Cell Lines. Studies were conducted with cell lines expressing rat (r) or human (h) Via, V1b, V2, or OT receptors. For the experiments with human receptors, human embryonic kidney (HEK)-flp-in cells stably expressing the lacZ-Zeocin™ fusion gene were used for expression of hV1a and hV1b. These cells were designed for use with the Flp-In™ expression vector containing the gene of interest (here hV1a or hV1b) and the Flp recombinase expression plasmid, pOG44. For hV2 and hOTR, HEK-293 cells transiently expressing hV2 were used.
Cell Maintenance. […]
(§2) Functional Cell-Based Assays. To detect activity generated by binding of the test compounds to endogenous rV1a receptors or the stably expressed hV1a receptors, Fluorometric Imaging Plate Reader (FL1PR) calcium assays were performed. Briefly, real-time fluorescence of an intracellular calcium-sensitive dye was measured immediately upon addition of the test compound at various concentrations. […] Expression of the luciferase gene was determined after 5-h incubation with various concentrations of test compound. […] For V1a receptor response, area under the curve of the real-time calcium traces, expressed as relative fluorescence units, was determined. […]

[1] = system: CCl4-induced rat model of cirrhosis and ascites; assay: CCl4-induced cirrhosis and ascites rats, cohort 3 (single IV bolus), hemodynamics and serum aldosterone; assay type: in vivo; conditions: 100 μg/kg IV
Method: Animals: 90 male Wistar rats (Charles River Laboratories, Espana S.A) weighing 200-220 grams at the time of receipt were subjected to a cirrhosis induction program; high dose CCl4 was administered by inhalation twice weekly (Monday and Friday) and phenobarbital (0.3 g/L) was added to drinking water. In some instances, liver damage in this model is caused by hepatotoxic CCl4 metabolites produced in the liver. In some instances, phenobarbital induction of the microsomal enzyme oxidizing system exaggerates the intensity of the hepatic necrosis. […] Animals were allowed free access to food and water throughout the study.
The study consisted of 3 treatment cohorts, as detailed in Table 10. Animals developing and maintaining ascites for 2 weeks were randomly assigned to treatment groups. Ringer Braun saline solution was used as vehicle. IV bolus were administered via femoral veins.
Cohort 3: Animals were anesthetized and the left femoral artery and vein catheterized. The femoral artery catheter was connected to a transducer for mean arterial pressure (MAP) measurements. The right jugular vein was isolated and a catheter placed in the right atrium; a thermocouple was advanced through the aortic arch via left carotid approach to monitor the intraarterial temperature and cardiac output (CO). MAP and CO were measured and recorded in a multichannel system (Powerlab). CO was measured by thermodilution following the administration of a 200 μL/animal bolus of Ringer solution (20-23° C.) into the right atrium using a spring-loaded Hamilton syringe. A midline abdominal incision (2 cm) was created and the portal vein cannulated through the ileocolic vein to measure portal pressure (PP). Constant infusion (2 mL/hr) of Ringer solution was given through the femoral vein. After 30 minutes of infusion, baseline 30 minute values for PP, MAP, CO, and systemic vascular resistance (SVR) were recorded. In the middle of the 30 minute data collection, a blood sample (0.8 mL) was obtained via the femoral artery catheter for serum aldosterone measurements. […] Five 30 minute data collections were recorded for PP, MAP, CO, and SVR over 150 minutes, with blood samples collected in the middle of each 30 minute data collection. Following blood sampling, packed cells were reconstituted with Ringer solution and reinjected over a period of 3 minutes.

[2] = PK of Compound 1, once daily subcutaneous (bolus) injection for 5 days in healthy men and women (Period 2); assay type: in vivo, human
Excerpt: In some instances, endpoints of the study were: vital signs (e.g., supine blood pressure, pulse, and body temperature), electrocardiogram (ECG) (e.g., intervals, rhythm, and morphology), cardiac function (e.g., cardiac output using echocardiography), peripheral blood flow/tissue perfusion (e.g., by skin color), venous blood gases (e.g., lactate), urinary output, clinical chemistry, hematology, hemostasis, and urinalysis, adverse events (AEs) (e.g., type, frequency, and intensity), pharmacokinetics (e.g., AUC, AUCt, AUCτ, % Extrap AUC, Cmax, tmax, CL, Vz, t1/2, MRT, Vss, F, Ae, and CLR), and metabolite pattern in plasma and urine.

hV1b receptor = biological target: T2, hV1b receptor (Homo sapiens, UniProt P47901); assay: Luciferase reporter gene assay, human V1b; conditions: read-out: % MPE
T2 sequence (P47901 1-424): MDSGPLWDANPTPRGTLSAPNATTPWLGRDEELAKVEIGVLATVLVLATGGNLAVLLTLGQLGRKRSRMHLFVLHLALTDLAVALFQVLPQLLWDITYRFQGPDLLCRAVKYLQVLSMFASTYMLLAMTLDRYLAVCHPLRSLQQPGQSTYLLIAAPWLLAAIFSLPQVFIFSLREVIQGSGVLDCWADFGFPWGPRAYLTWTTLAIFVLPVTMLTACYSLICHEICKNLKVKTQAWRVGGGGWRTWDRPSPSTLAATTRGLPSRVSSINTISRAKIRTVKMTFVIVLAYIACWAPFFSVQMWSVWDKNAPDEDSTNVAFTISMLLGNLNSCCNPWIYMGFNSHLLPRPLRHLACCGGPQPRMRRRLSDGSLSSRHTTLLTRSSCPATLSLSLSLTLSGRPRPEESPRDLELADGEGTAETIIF
Method: as §1
Cell Maintenance. […]
as §2

[3] = s.c. 0.1 mg, 1st administration
[4] = s.c. 0.1 mg, 5th administration
[5] = s.c. 0.3 mg, 1st administration
[6] = s.c. 0.3 mg, 5th administration

## CC[C@H](C)[C@@H]1NC(=O)[C@H](Cc2ccccc2)NC(=O)[C@@H](N)CSSC[C@@H](C(=O)N2CCC[C@H]2C(=O)N[C@@H](CCNC(=O)[C@@H](N)CCCCNC(=O)[C@H](CCCCNC(C)=O)NC(=O)CC[C@H](NC(=O)[C@H](CCCNC(=N)N)NC(=O)[C@@H]2CCCN2C(=O)[C@H](C)NC(=O)[C@H](CC(N)=O)NC(=O)[C@H](CCC(N)=O)NC(=O)[C@H](Cc2ccccc2)NC(=O)[C@@H](Cc2ccc(OC)cc2)NC(=O)Cc2ccccc2)C(N)=O)C(=O)NCC(N)=O)NC(=O)[C@H](CC(N)=O)NC(=O)[C@H](CCC(N)=O)NC1=O [Compound 1, Glycinamide, L-cysteinyl-L-phenylalanyl-L-isoleucyl-L-glutaminyl-L-asparaginyl-L-cysteinyl-L-prolyl-N4-(phenylacetyl-O-methyl-D-tyrosyl-L-phenylalanyl-L-glutaminyl-L-asparaginyl-L-alanyl-L-prolyl-L-arginyl-L-isoglutamyl-N5-acetyl-L-lysyl-L-ε-lysyl)-L-2,4-diaminobutyryl-, cyclic (1→6)-disulfide] (I: H-CFIQNCP[Dab]G-NH2 / II: PhAc-[dY](Me)FQNAPR[isoGln]K(Ac)[εLys]; disulfide I:1-I:6; amide I:8-II:C)
rV1b receptor
  Emax: 97%
[1]; 0 min
  Cardiac output - portal pressure: 173 mL/min
  Mean Arterial Pressure: 79 mmHg
  Systemic Vascular Resistance: 0.49 mmHg * min/mL
[1]; 30 min
  Cardiac output - portal pressure: 178 mL/min
  Mean Arterial Pressure: 84 mmHg
  Portal Pressure: 13.9 mmHg
  Systemic Vascular Resistance: 0.54 mmHg * min/mL
[1]; 60 min
  Cardiac output - portal pressure: 177 mL/min
  Mean Arterial Pressure: 91 mmHg
  Portal Pressure: 12.8 mmHg
  Systemic Vascular Resistance: 0.54 mmHg * min/mL
[1]; 90 min
  Cardiac output - portal pressure: 158 mL/min
  Mean Arterial Pressure: 98 mmHg
  Portal Pressure: 11.5 mmHg
  Systemic Vascular Resistance: 0.71 mmHg * min/mL
[1]; 120 min
  Cardiac output - portal pressure: 140 mL/min
  Mean Arterial Pressure: 93 mmHg
  Portal Pressure: 10.6 mmHg
  Systemic Vascular Resistance: 0.72 mmHg * min/mL
[1]; 150 min
  Cardiac output - portal pressure: 139 mL/min
  Mean Arterial Pressure: 92 mmHg
  Portal Pressure: 9.7 mmHg
  Systemic Vascular Resistance: 0.74 mmHg * min/mL
[1]; end of study
  reduction in serum aldosterone: greater than 50%
[1]; end of study (vehicle 786)
  Serum Aldosterone: 264 ng/dL
[2]; repeated s.c. injections, versus i.v.
  bioavailability: about 18%
[2]; s.c.
  terminal half-life (summary): about 1 hours
  tmax (summary): about 0.3 hours
[2]; [3]
  AUC, geometric mean: 0.87 (22) h*ng/mL
  AUC, mean: 0.88 (0.19) h*ng/mL
  Cmax, geometric mean: 0.43 (41) ng/mL
  Cmax, mean: 0.46 (0.17) ng/mL
  tmax, mean: 0.3 (0.1) h
[2]; [4]
  AUC, geometric mean: 0.70 (3) h*ng/mL
  AUC, mean: 0.70 (0.02) h*ng/mL
  Cmax, geometric mean: 0.42 (28) ng/mL
  Cmax, mean: 0.43 (0.14) ng/mL
  tmax, mean: 0.3 (0.1) h
[2]; [5]
  AUC, geometric mean: 6.40 (109) h*ng/mL
  AUC, mean: 7.90 (5.01) h*ng/mL
  Cmax, geometric mean: 2.45 (98) ng/mL
  Cmax, mean: 2.99 (2.03) ng/mL
  t1/2, mean: 1.6 (0.7) h
  tmax, mean: 0.4 (0.5) h
[2]; [6]
  AUC, geometric mean: 2.77 (113) h*ng/mL
  AUC, mean: 3.36 (2.69) h*ng/mL
  Cmax, geometric mean: 1.42 (58) ng/mL
  Cmax, mean: 1.52 (0.79) ng/mL
  tmax, mean: 0.4 (0.2) h
  tmax, median: 24 min
[2]; s.c. 0.1 and 0.3 mg, 1st and 5th administrations
  median tmax: 18 to 24 min
hV1b receptor
  Emax: 72%
